Our source for the logD values is the SangsterLogP compilation.

The nature of this series: method code SF-AS, from DOI: 10.1098/rspb.1976.0034, PMID: 5728. The settings on record: pH 4.5.
Usually logD stands for the decadic logarithm of the distribution of all forms, ionised or not, between an organic phase and buffer at a given pH. A high value points to higher lipophilicity. In turn, `CCOC(=O)c1ccc(S(N)(=O)=O)cc1` registered a logD of 1.17.

`CCc1ccc(S(N)(=O)=O)cc1` returned a logD of 1.31.

Take `CCCCc1ccc(S(N)(=O)=O)cc1`: the logD is 2.45.

`CCCCCOC(=O)c1ccc(S(N)(=O)=O)cc1` showed a logD of 2.71. The figure for `CNC(=O)c1ccc(S(N)(=O)=O)cc1` is -0.31; for `CCCCNC(=O)c1ccc(S(N)(=O)=O)cc1` it is 1.05. The figure for `CCCCCCNC(=O)c1ccc(S(N)(=O)=O)cc1` is 2.05; for `CCCCCNC(=O)c1ccc(S(N)(=O)=O)cc1` it is 1.51; for `CCCc1ccc(S(N)(=O)=O)cc1` it is 1.64.

Consider `CCCOC(=O)c1ccc(S(N)(=O)=O)cc1`, for which the logD turned out to be 1.75. Take `CCNC(=O)c1ccc(S(N)(=O)=O)cc1`: the logD was determined as 0.03. To `CCCNC(=O)c1ccc(S(N)(=O)=O)cc1` belongs 0.51. The figure for `CCCCOC(=O)c1ccc(S(N)(=O)=O)cc1` is 2.34.
